In PubChem BioAssay AID328 (DTP/NCI, 2004):
Inconclusive results and toxic doses are left out. Rule for the calls: active = survival T/C of 150% or more; inactive = T/C below 125% in these data.

Test system: BDF1 mice, P388 leukemia ip, median survival T/C
Experiment: NCI In Vivo Anticancer Drug Screen. Data for tumor model P388 Leukemia (intraperitoneal) in B6D2F1 (BDF1) mice
Conditions: endpoint: median survival time, higher = longer survival
In short: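 Each value expresses how treatment altered survival: treated-mouse outcome over vehicle-mouse outcome, both groups bearing the transplanted tumour.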

[1] = dose: 50.0 mg/kg/injection, schedule: Q01DX009 (ip), vehicle: saline
[2] = dose: 100.0 mg/kg/injection, schedule: Q01DX009 (ip), vehicle: saline
[3] = dose: 100.0 mg/kg/injection, schedule: Q01DX009 (ip), vehicle: Klucel (hydroxypropylcellulose) (HPC)
[4] = dose: 100.0 mg/kg/injection, schedule: Q04DX003 (ip), vehicle: Klucel (hydroxypropylcellulose) (HPC)
[5] = dose: 200.0 mg/kg/injection, schedule: Q01DX009 (ip), vehicle: Klucel (hydroxypropylcellulose) (HPC)
[6] = dose: 200.0 mg/kg/injection, schedule: Q04DX003 (ip), vehicle: Klucel (hydroxypropylcellulose) (HPC)
[7] = dose: 400.0 mg/kg/injection, schedule: Q01DX009 (ip), vehicle: Klucel (hydroxypropylcellulose) (HPC)
[8] = dose: 400.0 mg/kg/injection, schedule: Q04DX003 (ip), vehicle: Klucel (hydroxypropylcellulose) (HPC)
[9] = dose: 6.25 mg/kg/injection, schedule: Q01DX009 (ip), vehicle: saline
[10] = dose: 25.0 mg/kg/injection, schedule: Q01DX009 (ip), vehicle: saline
[11] = dose: 50.0 mg/kg/injection, schedule: Q01DX009 (ip), vehicle: saline with Tween-80
[12] = dose: 100.0 mg/kg/injection, schedule: Q01DX009 (ip), vehicle: saline with Tween-80
[13] = dose: 25.0 mg/kg/injection, schedule: Q04DX003 (ip), vehicle: saline
[14] = dose: 50.0 mg/kg/injection, schedule: Q04DX003 (ip), vehicle: saline
[15] = dose: 100.0 mg/kg/injection, schedule: Q04DX003 (ip), vehicle: saline

Measured: T/C

COc1cc(N)ccc1C(=O)O
inactive: dose: 0.39 mg/kg/injection, schedule: Q01DX009 (ip), vehicle: saline 103 % of control | dose: 0.78 mg/kg/injection, schedule: Q01DX009 (ip), vehicle: saline 99 % of control | dose: 3.12 mg/kg/injection, schedule: Q01DX009 (ip), vehicle: saline 115 % of control | [1] 95 % of control | [2] 101 % of control | dose: 200.0 mg/kg/injection, schedule: Q01DX009 (ip), vehicle: saline 96 % of control | dose: 400.0 mg/kg/injection, schedule: Q01DX009 (ip), vehicle: saline 104 % of control

CCOc1ccc2nc(S(N)(=O)=O)sc2c1
inactive: [3] 114 % of control | [4] 104 % of control | [5] 114 % of control | [6] 104 % of control | [7] 109 % of control | [8] 95 % of control

COC1(OC)C2CCC1C(Cl)=C2Cl
inactive: dose: 3.13 mg/kg/injection, schedule: Q01DX009 (ip), vehicle: saline 102 % of control | [9] 100 % of control | [10] 109 % of control

COc1ccc(-c2c[se]c(=S)s2)cc1
inactive: dose: 25.0 mg/kg/injection, schedule: Q01DX009 (ip), vehicle: saline with Tween-80 99 % of control | [11] 94 % of control | [12] 87 % of control

NC(N)=NC(N)=Nc1cnccn1
inactive: [10] 110 % of control | [13] 100 % of control | [1] 120 % of control | [14] 100 % of control | [2] 120 % of control | [15] 95 % of control

CN1CCN(CCCN2c3ccccc3Sc3ccc(Cl)cc32)CC1
inactive: [9] 113 % of control | dose: 12.5 mg/kg/injection, schedule: Q01DX009 (ip), vehicle: saline 109 % of control

CC(Cc1ccc2c(c1)OCO2)C(C)Cc1ccc2c(c1)OCO2 (configuration not stated)
inactive: dose: 100.0 mg/kg/injection, schedule: Q01DX001 (ip), vehicle: Klucel (hydroxypropylcellulose) (HPC) 100 % of control | dose: 200.0 mg/kg/injection, schedule: Q01DX001 (ip), vehicle: Klucel (hydroxypropylcellulose) (HPC) 100 % of control | dose: 400.0 mg/kg/injection, schedule: Q01DX001 (ip), vehicle: Klucel (hydroxypropylcellulose) (HPC) 100 % of control

C=CCC(B1OCCO1)B1OCCO1
inactive: [13] 95 % of control | [14] 90 % of control | [15] 100 % of control

COC1=C(NCc2ccccc2)C(=O)C(OC)=C(NCc2ccccc2)C1=O
inactive: [3] 90 % of control | [4] 95 % of control | [5] 100 % of control | [6] 86 % of control | [7] 100 % of control | [8] 95 % of control

O/C(=C/C(=S)S)c1cccs1
inactive: dose: 0.1 mg/kg/injection, schedule: Q04DX003 (ip), vehicle: water 88 % of control | dose: 0.2 mg/kg/injection, schedule: Q04DX003 (ip), vehicle: water 97 % of control | dose: 0.39 mg/kg/injection, schedule: Q01DX009 (ip), vehicle: water 101 % of control | dose: 0.4 mg/kg/injection, schedule: Q04DX003 (ip), vehicle: water 95 % of control | dose: 0.78 mg/kg/injection, schedule: Q01DX009 (ip), vehicle: water 97 % of control | dose: 0.8 mg/kg/injection, schedule: Q04DX003 (ip), vehicle: water 89 % of control | dose: 1.56 mg/kg/injection, schedule: Q01DX009 (ip), vehicle: water 92 % of control | dose: 3.12 mg/kg/injection, schedule: Q01DX009 (ip), vehicle: water 100 % of control | dose: 6.25 mg/kg/injection, schedule: Q01DX009 (ip), vehicle: water 102 % of control | dose: 6.25 mg/kg/injection, schedule: Q04DX003 (ip), vehicle: water 111 % of control | dose: 12.5 mg/kg/injection, schedule: Q01DX009 (ip), vehicle: water 94 % of control

CCCCC(=O)OCC1OC(n2cnc3c(=S)nc[nH]c32)C(OC(=O)CCCC)C1OC(=O)CCCC (configuration not stated)
inactive: dose: 12.5 mg/kg/injection, schedule: Q01DX009 (sc), vehicle: olive oil, sesame oil, peanut oil 100 % of control | dose: 25.0 mg/kg/injection, schedule: Q01DX009 (sc), vehicle: olive oil, sesame oil, peanut oil 91 % of control | dose: 50.0 mg/kg/injection, schedule: Q01DX009 (sc), vehicle: olive oil, sesame oil, peanut oil 100 % of control | dose: 100.0 mg/kg/injection, schedule: Q01DX009 (sc), vehicle: olive oil, sesame oil, peanut oil 96 % of control | dose: 100.0 mg/kg/injection, schedule: Q04DX003 (sc), vehicle: olive oil, sesame oil, peanut oil 108 % of control | dose: 200.0 mg/kg/injection, schedule: Q04DX003 (sc), vehicle: olive oil, sesame oil, peanut oil 108 % of control | dose: 400.0 mg/kg/injection, schedule: Q04DX003 (sc), vehicle: olive oil, sesame oil, peanut oil 116 % of control

CN1COC(OC2CSC2)C(C)(C)C1 (configuration not stated)
inactive: dose: 100.0 mg/kg/injection, schedule: Q04DX003 (ip), vehicle: saline with Tween-80 117 % of control | dose: 200.0 mg/kg/injection, schedule: Q04DX003 (ip), vehicle: saline with Tween-80 114 % of control | dose: 400.0 mg/kg/injection, schedule: Q04DX003 (ip), vehicle: saline with Tween-80 115 % of control

CCCCOCN(COCCCC)c1ccc(C)cc1
inactive: [11] 100 % of control | [12] 112 % of control
